# What was measured:
# [1] = system: hot flashes and outbreaks of sweating after orchiectomy; conditions: CPA 150 mg daily, cited from earlier work
# [2] = Same Phase 2 trial: cyproterone acetate and 15β-OH cyproterone acetate concentrations by treatment and visit; assay type: in vivo, human; conditions: 5 mg/day, 15 mg/day and 25 mg/day
# Description: FIG. 3 depicts schematically the analysis of cyproterone acetate and 15β-OH cyproterone acetate (a breakdown product of cyproterone acetate that contributes to the effectiveness of the drug) concentration in the patients who were treated.
# [3] = Prior study of 50 mg and 100 mg CPA: discontinuation rates; assay type: in vivo, human
# Description: The results of this study were compared with results from a prior study in which the efficacy of 50 mg and 100 mg of CPA was investigated. Efficacy data for the 50 mg and 100 mg studies showing a reduction in average daily number of moderate to severe hot flashes, and a reduction in average severity of hot flashes is shown in FIGS. 6 and 7, respectively. A comparison of the percent of patients with complete disappearance of all hot flashes at 12 weeks of treatment across studies is shown in Table 10.
# [4] = Same Phase 2 trial: adverse events and discontinuation; assay type: in vivo, human
# From the text: The overall study duration for each subject was approximately 19 weeks, which included a screening period of up to 4 weeks, a one-week placebo run-in period, a 12-week double-blind period, and a follow-up telephone call two weeks after the last dose of study medication.
# After providing informed consent on the first day of the screening period, all subjects had medical and hot flash history recorded, a physical examination, a chest x-ray and Doppler to assess known thromboembolic risk factors, an ECG to evaluate cardiac risks, and clinical laboratory evaluations. Once all results of tests conducted during the screening period were obtained, subjects who met all of the inclusion criteria and none of the exclusion criteria were eligible to enter the one-week, single-blind, placebo run-in period. […] After beginning study medication, subjects returned for study visits at weeks 2, 4, 8, and 12. Two weeks after the final treatment visit, a telephone follow-up call was conducted to record and evaluate adverse events (“AE”s) since the last study visit.
compound,measurement,setting,value
"CC(=O)O[C@]1(C(C)=O)CC[C@H]2[C@@H]3C=C(Cl)C4=CC(=O)[C@@H]5C[C@@H]5[C@]4(C)[C@H]3CC[C@@]21C [CPA, cyproterone acetate]",Frequency and severity in subjects who continued to experience hot flashes or sweating,[1],decreased
same,Subjects with outbreaks of sweating,[1]; placebo 47%,24%
same,Subjects experiencing hot flashes,[1]; placebo 61%,33%
same,Cyproterone acetate and 15β-OH cyproterone acetate concentration in treated patients,[2],dose proportional response
same,"12-week double-blind discontinuation due to Adverse Event, number",[3]; CPA 50 mg (N = 246),13
same,12-week double-blind discontinuation rate due to Adverse Event,[3]; CPA 50 mg (N = 246),(5.3%)
same,"12-week double-blind discontinuation due to Adverse Event, number",[3]; CPA 100 mg (N = 245),24
same,12-week double-blind discontinuation rate due to Adverse Event,[3]; CPA 100 mg (N = 245),(9.8%)
same,"12-week double-blind discontinuation due to Adverse Event, number",[4]; CPA 5 mg (N = 81),2
same,12-week double-blind discontinuation rate due to Adverse Event,[4]; CPA 5 mg (N = 81),(2.5%)
same,"Treatment-emergent AE Constipation, %",[4]; CPA 5 mg (N = 81),0.00%
same,"Treatment-emergent AE Depression, %",[4]; CPA 5 mg (N = 81),1.23%
same,"Treatment-emergent AE Diarrhoea, %",[4]; CPA 5 mg (N = 81),2.47%
same,"Treatment-emergent AE Dizziness, %",[4]; CPA 5 mg (N = 81),2.47%
same,"Treatment-emergent AE Dyspnoea, %",[4]; CPA 5 mg (N = 81),3.70%
same,"Treatment-emergent AE Fatigue, %",[4]; CPA 5 mg (N = 81),1.23%
same,"Treatment-emergent AE Headache, %",[4]; CPA 5 mg (N = 81),3.70%
same,"Treatment-emergent AE Influenza, %",[4]; CPA 5 mg (N = 81),0.00%
same,"Treatment-emergent AE Nasopharyngitis, %",[4]; CPA 5 mg (N = 81),3.70%
same,"Treatment-emergent AE Nausea, %",[4]; CPA 5 mg (N = 81),0.00%
same,"Treatment-emergent AE Oedema peripheral, %",[4]; CPA 5 mg (N = 81),1.23%
same,"Treatment-emergent AE Pain in extremity, %",[4]; CPA 5 mg (N = 81),3.70%
same,"Treatment-emergent AE Urinary tract infection, %",[4]; CPA 5 mg (N = 81),1.23%
same,"Treatment-emergent AE Vomiting, %",[4]; CPA 5 mg (N = 81),1.23%
same,"Treatment-related AE Constipation, %",[4]; CPA 5 mg (N = 81),0.00%
same,"Treatment-related AE Dyspnoea, %",[4]; CPA 5 mg (N = 81),0.00%
same,"Proportion of subjects experiencing treatment-emergent AEs, rank among groups","[4]; CPA 5 mg/day vs placebo, 15 and 25 mg/day",fewest proportion of subjects
same,"12-week double-blind discontinuation due to Adverse Event, number",[4]; CPA 15 mg (N = 99),5
same,12-week double-blind discontinuation rate due to Adverse Event,[4]; CPA 15 mg (N = 99),(5.1%)
same,"Treatment-emergent AE Constipation, %",[4]; CPA 15 mg (N = 99),6.06%
same,"Treatment-emergent AE Depression, %",[4]; CPA 15 mg (N = 99),4.04%
same,"Treatment-emergent AE Diarrhoea, %",[4]; CPA 15 mg (N = 99),6.06%
same,"Treatment-emergent AE Dizziness, %",[4]; CPA 15 mg (N = 99),7.07%
same,"Treatment-emergent AE Dyspnoea, %",[4]; CPA 15 mg (N = 99),7.07%
same,"Treatment-emergent AE Fatigue, %",[4]; CPA 15 mg (N = 99),6.06%
same,"Treatment-emergent AE Gynaecomastia, %",[4]; CPA 15 mg (N = 99),2.02%
same,"Treatment-emergent AE Headache, %",[4]; CPA 15 mg (N = 99),2.02%
same,"Treatment-emergent AE Influenza, %",[4]; CPA 15 mg (N = 99),1.01%
same,"Treatment-emergent AE Nasopharyngitis, %",[4]; CPA 15 mg (N = 99),3.03%
same,"Treatment-emergent AE Nausea, %",[4]; CPA 15 mg (N = 99),2.02%
same,"Treatment-emergent AE Oedema peripheral, %",[4]; CPA 15 mg (N = 99),1.01%
same,"Treatment-emergent AE Pain in extremity, %",[4]; CPA 15 mg (N = 99),3.03%
same,"Treatment-emergent AE Urinary tract infection, %",[4]; CPA 15 mg (N = 99),0.00%
same,"Treatment-emergent AE Vomiting, %",[4]; CPA 15 mg (N = 99),0.00%
same,"Treatment-related AE Constipation, %",[4]; CPA 15 mg (N = 99),2.02%
same,"Treatment-related AE Dyspnoea, %",[4]; CPA 15 mg (N = 99),4.04%
same,"12-week double-blind discontinuation due to Adverse Event, number",[4]; CPA 25 mg (N = 87),7
same,12-week double-blind discontinuation rate due to Adverse Event,[4]; CPA 25 mg (N = 87),(8.0%)
same,"Treatment-emergent AE Constipation, %",[4]; CPA 25 mg (N = 87),3.45%
same,"Treatment-emergent AE Depression, %",[4]; CPA 25 mg (N = 87),1.15%
same,"Treatment-emergent AE Diarrhoea, %",[4]; CPA 25 mg (N = 87),3.45%
same,"Treatment-emergent AE Dizziness, %",[4]; CPA 25 mg (N = 87),4.60%
same,"Treatment-emergent AE Dyspnoea, %",[4]; CPA 25 mg (N = 87),8.05%
same,"Treatment-emergent AE Fatigue, %",[4]; CPA 25 mg (N = 87),1.15%
same,"Treatment-emergent AE Gynaecomastia, %",[4]; CPA 25 mg (N = 87),4.60%
same,"Treatment-emergent AE Headache, %",[4]; CPA 25 mg (N = 87),3.45%
same,"Treatment-emergent AE Influenza, %",[4]; CPA 25 mg (N = 87),3.45%
same,"Treatment-emergent AE Nasopharyngitis, %",[4]; CPA 25 mg (N = 87),5.75%
same,"Treatment-emergent AE Nausea, %",[4]; CPA 25 mg (N = 87),2.30%
same,"Treatment-emergent AE Oedema peripheral, %",[4]; CPA 25 mg (N = 87),5.75%
same,"Treatment-emergent AE Pain in extremity, %",[4]; CPA 25 mg (N = 87),0.00%
same,"Treatment-emergent AE Urinary tract infection, %",[4]; CPA 25 mg (N = 87),3.45%
same,"Treatment-emergent AE Vomiting, %",[4]; CPA 25 mg (N = 87),2.30%
same,"Treatment-related AE Constipation, %",[4]; CPA 25 mg (N = 87),3.45%
same,"Treatment-related AE Dyspnoea, %",[4]; CPA 25 mg (N = 87),4.60%
